Where two headings read alike, the source gives them in different places.
Experiments:
[1] = system: genotype 4a (ED43) stable HCV replicon in Huh-7-derived cells; test: Stable subgenomic HCV replicon EC50, genotype 4a (Renilla luciferase); assay type: cell-based, hepatitis C virus; settings: 72 h, read-out: EC50 4A RLUC
In short: (§1)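 Compounds, three-fold diluted, were applied to Huh-7-derived cells harbouring luciferase replicons (genotype 1a H77, 1b Con1, 2a JFH-1, 4a ED43, with strain-specific adaptive mutations). Seventy-two hours later, intracellular replication was gauged by Renilla luciferase activity and EC50 derived by regression.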

[2] = system: genotype 1a (H77) stable HCV replicon in Huh-7-derived cells; test: Stable subgenomic HCV replicon EC50, genotype 1a (Renilla luciferase); assay type: cell-based, hepatitis C virus; settings: stable replicon genotype 1a, 72 h, read-out: EC50 1A RLUC
In short: as §1

[3] = system: genotype 1a (H77) wild type transient HCV replicon in Huh-7-derived cells; test: Transient-transfected HCV replicon EC50, genotype 1a wild type; assay type: cell-based, hepatitis C virus; settings: 72 h, transient-transfected replicon genotype 1a wild type, read-out: EC50 1A WT
[4] = system: genotype 1b NS3/4a protease inhibitor resistant variant D168A transient HCV replicon in Huh-7-derived cells; test: Transient-transfected HCV replicon EC50, genotype 1b D168A; assay type: cell-based, hepatitis C virus; settings: 72 h
[5] = system: genotype 1a NS3/4a protease inhibitor resistant variant R155K transient HCV replicon in Huh-7-derived cells; test: Transient-transfected HCV replicon EC50, genotype 1a R155K; assay type: cell-based, hepatitis C virus; settings: 72 h
[6] = system: genotype 3a (S52) stable HCV replicon in Huh-7-derived cells; test: Stable subgenomic HCV replicon EC50, genotype 3a (Renilla luciferase); assay type: cell-based, hepatitis C virus; settings: 72 h, read-out: EC50 3A RLUC
[7] = system: genotype 1b (Con1) wild type transient HCV replicon in Huh-7-derived cells; test: Transient-transfected HCV replicon EC50, genotype 1b wild type; assay type: cell-based, hepatitis C virus; settings: 72 h, transient-transfected replicon genotype 1b wild type, read-out: EC50 1B WT
[8] = system: genotype 1b (Con1) stable HCV replicon in Huh-7-derived cells; test: Stable subgenomic HCV replicon EC50, genotype 1b (Renilla luciferase); assay type: cell-based, hepatitis C virus; settings: stable replicon genotype 1b, 72 h, read-out: EC50 1B RLUC
In short: as §1

[9] = molecular target: HCV NS3 protease domain genotype 3a (Hepatitis C virus genotype 3a, UniProt Q81258); test: Ki determination, NS3 protease genotype 3a (fluorogenic depsipeptide substrate); assay type: biochemical; settings: 200 pM enzyme, NS4A peptide
In short: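 The NS3 protease domain (aa 1-181) with 20 μM NS4A peptide was used at 50 pM with 4 μM substrate (1b) or at 200 pM with 2 μM substrate (3a). Inhibitors (100 nM-5 pM) were pre-incubated 1 h at room temperature in HEPES/glycerol/DTT buffer with 10% DMSO. Steady-state rates (90-120 min) gave Ki via the Morrison equation, corrected for active enzyme and [S]/Km.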

[10] = molecular target: HCV NS3 protease domain genotype 1b (Hepatitis C virus genotype 1b (isolate Con1), UniProt Q9WMX2, E1202G); test: Ki determination, NS3 protease genotype 1b (fluorogenic depsipeptide substrate); assay type: biochemical; settings: 50 pM enzyme, NS4A peptide
Method: Purified NS3 protease domain (amino acids 1-181) of the genotype 1b and 3a virus were generated as above.
Reactions were run at room temperature in buffer consisting of 50 mM HEPES, 40% glycerol, 0.05% Triton X-100, 10 mM DTT, and 10% DMSO. The final assay solutions contained 50 pM NS3 genotype 1 b protease or 200 pM genotype 3a protease, 20 μM NS4A peptide, and 4 μM substrate (genotype 1b) or 2 μM substrate (genotype 3a). Inhibitor concentrations varied from 100 nM to 5 pM in 3-fold dilutions, and no-inhibitor controls were included.
Compound dilutions were made in DMSO at 20× final concentration. Reaction mixtures were prepared in 96-well assay plates. A solution of enzyme and NS4A peptide in assay buffer (25 μL volume with both reagents at 4× final concentration) was mixed with 45 μL assay buffer and 5 μL of either inhibitor or DMSO, and pre-incubated at room temperature for 1 hour. The reaction was started by addition of 25 μL substrate solution at 4× final concentration. Plates were mixed vigorously for 5-10 seconds and reactions were allowed to proceed for 90 minutes, fluorescence was measured every 30 s between 90 and 120 minutes reaction time using a Tecan InfiniTe M1000 or PerkinElmer Envision multimode plate reader with an excitation wavelength of 340 nm and an emission wavelength of 490 nm.
To determine the Ki, rates were plotted as a function of inhibitor concentration, and the data were fit with equation 1 (Morrison, J. F., Biochimica et Biophysica Acta 1969, 185, 269-286) to calculate Ki^app using GraphPad Prism 5. […] Ki was calculated from Ki^app/(1+[[S]/Km]).

[11] = system: genotype 2a (JFH-1) stable HCV replicon in Huh-7-derived cells; test: Stable subgenomic HCV replicon EC50, genotype 2a (Renilla luciferase); assay type: cell-based, hepatitis C virus; settings: stable replicon genotype 2a, 72 h, read-out: EC50 2A RLUC
In short: as §1

[12] = system: genotype 3a (S52) wild type transient HCV replicon in Huh-7-derived cells; test: Transient-transfected HCV replicon EC50, genotype 3a wild type; assay type: cell-based, hepatitis C virus; settings: transient-transfected replicon genotype 3a wild type, 72 h; read-out: EC50 3A WT
[13] = Hepatitis C virus, read-out: EC50 1B D168A, transient-transfected replicon genotype 1b D168A resistant variant, 72 h
[14] = Hepatitis C virus, read-out: EC50 1A R155K, transient-transfected replicon genotype 1a R155K resistant variant, 72 h
[15] = stable replicon genotype 4a, Renilla luciferase
[16] = transient-transfected replicon genotype 1b D168A resistant variant, read-out: EC50 1B D168A
[17] = transient-transfected replicon genotype 1a R155K resistant variant, read-out: EC50 1A R155K
[18] = stable replicon genotype 3a, Renilla luciferase

Chain of HCV NS3 protease domain genotype 3a (Q81258 whole entry, looked up, the tested form may be a part): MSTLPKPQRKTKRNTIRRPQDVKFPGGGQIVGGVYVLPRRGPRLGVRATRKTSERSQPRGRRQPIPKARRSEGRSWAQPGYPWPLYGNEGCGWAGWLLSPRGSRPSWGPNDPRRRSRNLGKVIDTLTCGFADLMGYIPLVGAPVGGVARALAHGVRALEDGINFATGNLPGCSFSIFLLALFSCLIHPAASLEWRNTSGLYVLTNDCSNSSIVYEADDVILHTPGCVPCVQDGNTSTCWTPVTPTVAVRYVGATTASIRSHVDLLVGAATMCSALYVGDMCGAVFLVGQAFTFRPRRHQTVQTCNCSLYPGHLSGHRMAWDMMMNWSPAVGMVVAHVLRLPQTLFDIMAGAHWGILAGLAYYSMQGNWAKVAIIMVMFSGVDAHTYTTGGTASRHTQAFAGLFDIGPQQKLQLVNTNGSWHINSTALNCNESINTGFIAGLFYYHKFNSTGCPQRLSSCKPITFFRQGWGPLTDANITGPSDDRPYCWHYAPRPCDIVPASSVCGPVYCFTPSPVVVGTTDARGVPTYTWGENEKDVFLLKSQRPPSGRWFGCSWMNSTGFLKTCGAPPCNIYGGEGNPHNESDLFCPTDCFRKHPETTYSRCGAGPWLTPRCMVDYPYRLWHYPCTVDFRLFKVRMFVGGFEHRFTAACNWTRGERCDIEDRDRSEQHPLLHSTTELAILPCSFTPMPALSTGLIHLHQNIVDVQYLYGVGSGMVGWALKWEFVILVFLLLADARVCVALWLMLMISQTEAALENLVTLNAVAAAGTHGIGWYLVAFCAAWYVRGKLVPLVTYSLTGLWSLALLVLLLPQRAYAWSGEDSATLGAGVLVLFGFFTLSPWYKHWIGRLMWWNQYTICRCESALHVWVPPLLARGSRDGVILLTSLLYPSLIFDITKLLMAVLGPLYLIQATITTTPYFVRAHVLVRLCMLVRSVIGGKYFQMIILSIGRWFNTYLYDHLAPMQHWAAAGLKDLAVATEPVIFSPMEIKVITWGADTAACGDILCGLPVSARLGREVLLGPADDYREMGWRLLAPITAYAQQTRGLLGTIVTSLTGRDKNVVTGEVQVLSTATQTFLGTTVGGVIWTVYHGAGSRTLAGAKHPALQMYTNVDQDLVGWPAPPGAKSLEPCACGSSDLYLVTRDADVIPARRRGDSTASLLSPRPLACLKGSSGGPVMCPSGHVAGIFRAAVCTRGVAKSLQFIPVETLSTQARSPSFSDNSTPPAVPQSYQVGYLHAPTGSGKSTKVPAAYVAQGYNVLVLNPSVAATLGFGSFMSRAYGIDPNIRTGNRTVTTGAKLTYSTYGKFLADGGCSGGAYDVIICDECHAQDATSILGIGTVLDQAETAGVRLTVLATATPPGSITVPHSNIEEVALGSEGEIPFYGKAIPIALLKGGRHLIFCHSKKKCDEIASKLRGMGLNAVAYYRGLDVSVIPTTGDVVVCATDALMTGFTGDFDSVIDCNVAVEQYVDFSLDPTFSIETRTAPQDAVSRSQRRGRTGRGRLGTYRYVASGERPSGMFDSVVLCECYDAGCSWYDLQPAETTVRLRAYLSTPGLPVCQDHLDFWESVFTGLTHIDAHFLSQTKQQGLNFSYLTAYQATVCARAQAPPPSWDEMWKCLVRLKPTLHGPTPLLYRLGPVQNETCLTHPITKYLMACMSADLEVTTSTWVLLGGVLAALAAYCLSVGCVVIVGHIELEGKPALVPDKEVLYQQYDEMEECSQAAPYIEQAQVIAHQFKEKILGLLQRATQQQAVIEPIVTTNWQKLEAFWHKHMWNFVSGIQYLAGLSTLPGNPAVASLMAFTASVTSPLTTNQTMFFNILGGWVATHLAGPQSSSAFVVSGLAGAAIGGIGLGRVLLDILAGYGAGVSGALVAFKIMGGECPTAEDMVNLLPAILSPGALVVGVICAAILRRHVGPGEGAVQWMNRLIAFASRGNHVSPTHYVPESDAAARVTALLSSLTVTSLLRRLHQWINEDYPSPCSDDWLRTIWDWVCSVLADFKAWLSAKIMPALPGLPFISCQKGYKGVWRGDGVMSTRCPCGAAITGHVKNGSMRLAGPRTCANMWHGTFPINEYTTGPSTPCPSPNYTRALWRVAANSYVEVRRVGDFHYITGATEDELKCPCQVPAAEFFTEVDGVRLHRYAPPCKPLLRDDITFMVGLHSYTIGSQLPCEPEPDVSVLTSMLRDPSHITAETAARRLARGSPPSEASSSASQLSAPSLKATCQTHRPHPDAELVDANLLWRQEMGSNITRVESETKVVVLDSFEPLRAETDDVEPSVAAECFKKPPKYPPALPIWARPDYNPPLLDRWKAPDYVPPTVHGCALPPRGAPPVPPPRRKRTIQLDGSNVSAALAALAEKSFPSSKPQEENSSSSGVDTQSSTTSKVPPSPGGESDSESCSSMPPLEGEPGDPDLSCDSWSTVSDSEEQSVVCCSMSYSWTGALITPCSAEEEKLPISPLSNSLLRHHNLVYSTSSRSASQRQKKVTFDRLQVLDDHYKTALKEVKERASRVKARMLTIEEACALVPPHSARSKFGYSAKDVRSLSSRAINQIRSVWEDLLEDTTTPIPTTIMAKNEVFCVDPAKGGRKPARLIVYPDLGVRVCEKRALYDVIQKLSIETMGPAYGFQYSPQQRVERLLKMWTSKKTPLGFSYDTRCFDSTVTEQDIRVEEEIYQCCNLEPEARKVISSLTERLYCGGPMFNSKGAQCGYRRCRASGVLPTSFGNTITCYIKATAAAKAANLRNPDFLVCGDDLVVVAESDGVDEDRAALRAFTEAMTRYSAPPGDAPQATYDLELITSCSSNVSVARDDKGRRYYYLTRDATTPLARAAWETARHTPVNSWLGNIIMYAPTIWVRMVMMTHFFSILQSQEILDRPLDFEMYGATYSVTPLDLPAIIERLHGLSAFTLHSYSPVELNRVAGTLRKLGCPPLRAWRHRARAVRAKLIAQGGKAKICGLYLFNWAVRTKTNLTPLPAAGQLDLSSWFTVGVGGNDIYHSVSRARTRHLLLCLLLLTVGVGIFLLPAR
Chain of HCV NS3 protease domain genotype 1b (Q9WMX2 1027-1208 E1202G): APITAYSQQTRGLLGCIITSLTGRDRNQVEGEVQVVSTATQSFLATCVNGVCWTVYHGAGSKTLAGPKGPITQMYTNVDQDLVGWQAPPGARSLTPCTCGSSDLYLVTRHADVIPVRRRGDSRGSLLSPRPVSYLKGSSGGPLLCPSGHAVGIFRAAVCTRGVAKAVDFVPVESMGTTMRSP

Compound: CC[C@@H]1[C@@H]2CN(C(=O)[C@H](C(C)(C)C)NC(=O)O[C@@H]3CCC[C@H]3CCCCCc3nc4ccc(OC)cc4nc3O2)[C@@H]1C(=O)N[C@]1(C(=O)NS(=O)(=O)C2CC2)C[C@H]1C(F)F [Example 5, (3aR,7S,10S,11S,12R,24aR)-7-tert-butyl-N-[(1R,2R)-1-[(cyclopropylsulfonyl)carbamoyl]-2-(difluoromethyl)cyclopropyl]-11-ethyl-16-methoxy-5,8-dioxo-1,2,3,3a,5,6,7,8,11,12,20,21,22,23,24,24a-hexadecahydro-10H-9,12-methanocyclopenta[18,19][1,10,3,6]dioxadiazacyclononadecino[11,12-b]quinoxaline-10-carboxamide]
- EC50 ([1]; Hepatitis C virus): 6.9 nM
- EC50 ([2]; Hepatitis C virus): 8.7 nM
- EC50 ([3]; Hepatitis C virus): 3.7 nM
- EC50 [4, 13]: 91 nM
- EC50 [5, 14]: 17 nM
- EC50 ([6]; Hepatitis C virus): 405 nM
- EC50 ([7]; Hepatitis C virus): 3.2 nM
- EC50 ([8]; Hepatitis C virus): 7.4 nM
- Ki [9]: 0.17 nM
- Ki [10]: 0.04 nM
- EC50 ([11]; Hepatitis C virus): 11 nM

Compound: CC[C@@H]1[C@@H]2CN(C(=O)[C@H](C(C)(C)C)NC(=O)O[C@@H]3[C@H]4CC[C@H](C4)[C@H]3CCCCCc3nc4ccc(OC)cc4nc3O2)[C@@H]1C(=O)N[C@]1(C(=O)NS(=O)(=O)C2CC2)C[C@H]1C(F)F [Example 13, (1R,4S,4aR,8S,11S,12S,13R,25aR)-8-tert-butyl-N-[(1R,2R)-1-[(cyclopropylsulfonyl)carbamoyl]-2-(difluoromethyl)cyclopropyl]-12-ethyl-17-methoxy-6,9-dioxo-2,3,4,4a,6,7,8,9,12,13,21,22,23,24,25,25a-hexadecahydro-1H,11H-1,4:10,13-dimethanoquinoxalino[2,3-k][1,10,3,6]benzodioxadiazacyclononadecine-11-carboxamide]
- EC50 ([1]; Hepatitis C virus): 11 nM
- EC50 ([2]; Hepatitis C virus): 13 nM
- EC50 ([3]; Hepatitis C virus): 8.6 nM
- EC50 [4, 13]: 209 nM
- EC50 [5, 14]: 59 nM
- EC50 ([6]; Hepatitis C virus): 685 nM
- EC50 ([7]; Hepatitis C virus): 3.1 nM
- EC50 ([8]; Hepatitis C virus): 9.5 nM
- Ki [9]: 0.18 nM
- Ki [10]: 0.04 nM
- EC50 ([11]; Hepatitis C virus): 26 nM

Compound: CC[C@@H]1[C@@H]2CN(C(=O)[C@H](C3CCCC3)NC(=O)O[C@@H]3C[C@H]3CCCCCc3nc4ccc(OC)cc4nc3O2)[C@@H]1C(=O)N[C@]1(C(=O)NS(=O)(=O)C2(C)CC2)C[C@H]1C(F)F [Example 14, (1aR,5S,8S,9S,10R,22aR)-5-cyclopentyl-N-[(1R,2R)-2-(difluoromethyl)-1-{[(1-methylcyclopropyl)sulfonyl]carbamoyl}cyclopropyl]-9-ethyl-14-methoxy-3,6-dioxo-1,1a,3,4,5,6,9,10,18,19,20,21,22,22a-tetradecahydro-8H-7,10-methanocyclopropa[18,19][1,10,3,6]dioxadiazacyclononadecino[11,12-b]quinoxaline-8-carboxamide]
- EC50 ([1]; Hepatitis C virus): 7.3 nM
- EC50 ([2]; Hepatitis C virus): 9.7 nM
- EC50 ([3]; Hepatitis C virus): 7.4 nM
- EC50 [4, 13]: 99 nM
- EC50 [5, 14]: 21 nM
- EC50 ([6]; Hepatitis C virus): 308 nM
- EC50 ([7]; Hepatitis C virus): 4 nM
- EC50 ([8]; Hepatitis C virus): 6.8 nM
- Ki [9]: 0.24 nM
- Ki [10]: 0.07 nM
- EC50 ([11]; Hepatitis C virus): 7 nM

Compound: COc1ccc2nc3c(nc2c1)O[C@H]1CN(C(=O)[C@H](C(C)(C)C)NC(=O)O[C@@H]2[C@H]4CC[C@H](C4)[C@H]2CCCCC3)[C@H](C(=O)N[C@]2(C(=O)NS(=O)(=O)C3CC3)C[C@H]2C(F)F)[C@@H]1C [Example 26, (1R,4S,4aR,8S,11S,12S,13R,25aR)-8-tert-butyl-N-[(1R,2R)-1-[(cyclopropylsulfonyl)carbamoyl]-2-(difluoromethyl)cyclopropyl]-17-methoxy-12-methyl-6,9-dioxo-2,3,4,4a,6,7,8,9,12,13,21,22,23,24,25,25a-hexadecahydro-1H,11H-1,4:10,13-dimethanoquinoxalino[2,3-k][1,10,3,6]benzodioxadiazacyclononadecine-11-carboxamide]
- EC50 ([1]; Hepatitis C virus): 6 nM
- EC50 ([2]; Hepatitis C virus): 6.3 nM
- EC50 ([3]; Hepatitis C virus): 3.6 nM
- EC50 [4, 13]: 109 nM
- EC50 [5, 14]: 12 nM
- EC50 ([6]; Hepatitis C virus): 297 nM
- EC50 ([7]; Hepatitis C virus): 1.9 nM
- EC50 ([8]; Hepatitis C virus): 4.3 nM
- Ki [9]: 0.17 nM
- Ki [10]: 0.05 nM
- EC50 ([11]; Hepatitis C virus): 12 nM

Compound: CCC[C@@H]1[C@@H]2CN(C(=O)[C@H](C(C)(C)C)NC(=O)O[C@@H]3C[C@H]3CCCCCc3nc4ccc(OC)cc4nc3O2)[C@@H]1C(=O)N[C@]1(C(=O)NS(=O)(=O)C2(C)CC2)C[C@H]1C(F)F [Example 29, (1aR,5S,8S,9S,10R,22aR)-5-tert-butyl-N-[(1R,2R)-2-(difluoromethyl)-1-{[(1-methylcyclopropyl)sulfonyl]carbamoyl}cyclopropyl]-14-methoxy-3,6-dioxo-9-propyl-1,1a,3,4,5,6,9,10,18,19,20,21,22,22a-tetradecahydro-8H-7,10-methanocyclopropa[18,19][1,10,3,6]dioxadiazacyclononadecino[11,12-b]quinoxaline-8-carboxamide]
- EC50 ([1]; Hepatitis C virus): 7.2 nM
- EC50 ([2]; Hepatitis C virus): 10 nM
- EC50 ([3]; Hepatitis C virus): 4.8 nM
- EC50 [4, 13]: 48 nM
- EC50 [5, 14]: 11 nM
- EC50 ([6]; Hepatitis C virus): 137 nM
- EC50 ([7]; Hepatitis C virus): 3.1 nM
- EC50 ([8]; Hepatitis C virus): 8.9 nM
- Ki [9]: 0.12 nM
- Ki [10]: 0.06 nM
- EC50 ([11]; Hepatitis C virus): 11 nM

Compound: CC[C@@H]1[C@@H]2CN(C(=O)[C@H](C(C)(C)C)NC(=O)O[C@@H]3C[C@H]3CC/C=C/C(F)(F)c3nc4ccc(OC)cc4nc3O2)[C@@H]1C(=O)N[C@]1(C(=O)NS(=O)(=O)C2(C)CC2)C[C@H]1C(F)F [Example 89]
- EC50 [1, 15]: 4.6 nM
- EC50 [2]: 6 nM
- EC50 [3]: 6 nM
- EC50 [4, 16]: 5.1 nM
- EC50 [12]: 5.5 nM
- EC50 [5, 17]: 3.7 nM
- EC50 [6, 18]: 19 nM
- EC50 [7]: 3.2 nM
- EC50 [8]: 6.1 nM
- Ki [9]: 0.05 nM
- EC50 [11]: 4.3 nM

Compound: (1aR,5S,8S,9S,10R,22aR)-5-tert-butyl-14-chloro-N-[(1R,2R)-2-(difluoromethyl)-1-{[(1-methylcyclopropyl)sulfonyl]carbamoyl}cyclopropyl]-18,18-difluoro-9-methyl-3,6-dioxo-1,1a,3,4,5,6,9,10,18,19,20,21,22,22a-tetradecahydro-8H-7,10-methanocyclopropa[18,19][3,6]dioxadiazacyclononadecino[11,12-b]quinoxaline-8-carboxamide [Example 88]
- EC50 [1, 15]: 4.1 nM
- EC50 [2]: 9.3 nM
- EC50 [3]: 5 nM
- EC50 [4, 16]: 24 nM
- EC50 [12]: 35 nM
- EC50 [5, 17]: 14 nM
- EC50 [6, 18]: 105 nM
- EC50 [7]: 5.5 nM
- EC50 [8]: 4.6 nM
- Ki [9]: 0.29 nM
- EC50 [11]: 2.7 nM

— patent US10335409B2 (priority 2012, dated 2019)
